Experimental data taken from patent US5633219A, “5H-pyrrolo(3',4':5,6)(1,4)dithiin o(2,3-C)(1,2,5)thiadiazole-5,7(6H)-dione, compositions containing them and their use as antimicrobial and marine antifouling agents” (The Dow Chemical Company, priority 1996, dated 1997).
In brackets after ≈: the same amount, converted by molar mass. Where two headings read alike, the source gives them in different places.

How the values were obtained:
[1] = system: Pseudomonas aeruginosa (Pa); assay: Minimum inhibitory concentration, nutrient agar, Pseudomonas aeruginosa; type: cell-based, Pseudomonas aeruginosa ATCC 10145; settings: 30° C, 48 hours
[2] = system: Salmonella choleraesuis (Sc); assay: Minimum inhibitory concentration, nutrient agar, Salmonella choleraesuis; type: cell-based, Salmonella choleraesuis ATCC 10708; settings: Salmonella enterica, 30° C, 48 hours
Aspergillus niger (An) = assay: Minimum inhibitory concentration, malt yeast agar, Aspergillus niger; type: cell-based, Aspergillus niger ATCC 16404; settings: 30° C, 72 hours (fungi)
Experimental: (§1) Malt yeast agar is prepared by adding 3 g yeast extract and 45 g malt agar per liter of deionized water. The specific agar is dispensed in 30 mL aliquots into 25×200 mm test tubes, capped and autoclaved for 15 minutes at 115° C.
(§2) The inoculation with the yeast and fungi is accomplished as follows. Cultures of yeast and fungi are incubated for seven days on malt yeast agar at 30° C. These cultures are used to prepare suspensions by the following procedure. A suspension of each organism is prepared by adding 10 mL of sterile saline and 10 microliters of octylphenoxy polyethoxy ethanol to the agar slant of yeast or fungi. The sterile saline/octylphenoxy polyethoxy ethanol solution is then agitated with a sterile swab to suspend the microorganism grown on the slant. Each resulting suspension is diluted into sterile saline (1 part suspension to 9 parts sterile saline). Aliquots of these dilutions are placed in individual wells of Steer's Replicator and petri plates inoculated as previously described. The petri plates are incubated at 30° C. and read after 48 hours for yeast and 72 hours for fungi.

Candida albicans (Ca) = assay: Minimum inhibitory concentration, malt yeast agar, Candida albicans; type: cell-based, Candida albicans ATCC 10231; settings: malt yeast agar, 30° C, 48 hours (yeast); read-out: Minimum Inhibitory Concentration, Ca
Experimental: as §1, §2

[3] = system: Penicillium chrysogenum (PC); assay: Minimum inhibitory concentration, malt yeast agar, Penicillium chrysogenum; type: cell-based, Penicillium chrysogenum ATCC 9480; settings: malt yeast agar, 30° C, 72 hours (fungi); read-out: Minimum Inhibitory Concentration, Pc
Experimental: as §1, §2

[4] = system: Saccharomyces cerevisiae (Sc); assay: Minimum inhibitory concentration, malt yeast agar, Saccharomyces cerevisiae; type: cell-based, Saccharomyces cerevisiae ATCC 4105; settings: malt yeast agar, 30° C, 48 hours (yeast), read-out: Minimum Inhibitory Concentration, Sc
Experimental: as §1, §2

Trichoderma viride (Tv) = assay: Minimum inhibitory concentration, malt yeast agar, Trichoderma viride; type: cell-based, Trichoderma viride ATCC 8678; settings: malt yeast agar, 30° C, 72 hours (fungi); read-out: Minimum Inhibitory Concentration, Tv
Experimental: as §1, §2

[5] = system: Aureobasidium pullulan (Ap); assay: Minimum inhibitory concentration, malt yeast agar, Aureobasidium pullulan; type: cell-based, Aureobasidium pullulan ATCC 16622; settings: 30° C, 48 hours for yeast and 72 hours for fungi
Experimental: as §1, §2

Fusarium oxysporum (Of) = assay: Minimum inhibitory concentration, malt yeast agar, Fusarium oxysporum; type: cell-based, Fusarium oxysporum ATCC 48112; settings: 30° C, 72 hours (fungi), read-out: Minimum Inhibitory Concentration, Fo
Experimental: as §1, §2

marine organisms = assay: Marine antifouling rating of coated test panels exposed under a marine surface; settings: scale 10 (completely free of growth) to 0 (completely covered), 1.0 g compound in 9.0 g latex binder
Experimental: Test panels are prepared from clear, rigid polyvinyl chloride film that is 0.381×10^-3 m thick and has one textured surface. The test panels are 0.1524 m by 0.1524 m squares that have 0.00635 m holes punched at corners on 0.127 m centers. A 0.102 square template, with a 0.067 m diameter hole at the center, is attached to the center of the textured surface of the test panels.
A candidate marine antifoulant compound (1.0 g) is stirred into a resinous latex binder (9.0 g). A portion of the compound/binder mixture (1.5 g) is added to the center of the test panel and uniformly spread over the circular area inside the template.
Water is added dropwise as needed to properly spread the compound/binder mixture. The template prevents the compound/binder mixture from spreading beyond the uncovered area. The test panel is allowed to sit for between 10 to 30 minutes until the edge of the spread compound/binder mixture has dried. The template is then removed. The test panel is then allowed to dry for 8 to 12 hours at room temperature.
Two test panels are prepared for each candidate marine antifoulant compound. Two control test panels are also prepared by only treating with the resinous latex binder. One test panel of each candidate marine […] compound is attached over a white background to the topside of an exposure support apparatus. The second test panel is attached over a black background to the underside of the exposure support apparatus. The exposure support apparatus is placed horizontally 0.0254 m under a marine surface with the white background topside facing up. […]
After being removed from the exposure support apparatus, each test panel is inspected and rated for marine organism growth on both the treated and untreated areas of the test panel. The marine organisms present on the treated and untreated areas are noted. The presence of algae spores and bacterial slime are noted but not included in rating each test panel. The test panels are rated on a scale from 10 (representing completely free of marine organism growth) to 0 (representing completely covered with marine organism growth).

Escherichia coli (Ec) = assay: Minimum inhibitory concentration, nutrient agar, Escherichia coli; settings: 48 h
Proteus vulgaris (Pv) = assay: Minimum inhibitory concentration, nutrient agar, Proteus vulgaris; settings: 48 h
Bacillus subtilis (Bs) = assay: Minimum inhibitory concentration, nutrient agar, Bacillus subtilis; settings: 48 h
[6] = system: Klebsiella pneumoniae (Kp); assay: Minimum inhibitory concentration, nutrient agar, Klebsiella pneumoniae; settings: 48 h
[7] = system: Staphylococcus aureus (Sa); assay: Minimum inhibitory concentration, nutrient agar, Staphylococcus aureus; settings: 48 h
[8] = system: Enterobacter aerogenes (Ea); assay: Minimum inhibitory concentration, nutrient agar, Enterobacter aerogenes; settings: Klebsiella aerogenes, 48 h
[9] = system: Pseudomonas aeruginosa (PRD-10); assay: Minimum inhibitory concentration, nutrient agar, Pseudomonas aeruginosa PRD-10; settings: 48 h
[10] = pH 6.8, read-out: Minimum inhibitory Concentration, Ec
[11] = pH 8.2, read-out: Minimum inhibitory Concentration, Ec
[12] = pH 6.8, read-out: Minimum inhibitory Concentration, Pv
[13] = pH 8.2, read-out: Minimum inhibitory Concentration, Pv
[14] = pH 6.8, read-out: Minimum inhibitory Concentration, Bs
[15] = pH 8.2, read-out: Minimum inhibitory Concentration, Bs
[16] = pH 6.8, read-out: Minimum inhibitory Concentration, Kp
[17] = pH 8.2, read-out: Minimum inhibitory Concentration, Kp
[18] = pH 6.8, read-out: Minimum inhibitory Concentration, Sa
[19] = pH 8.2, read-out: Minimum inhibitory Concentration, Sa
[20] = pH 6.8, read-out: Minimum inhibitory Concentration, Ea
[21] = pH 8.2, read-out: Minimum inhibitory Concentration, Ea
[22] = pH 6.8, read-out: Minimum inhibitory Concentration, PRD
[23] = pH 8.2, read-out: Minimum inhibitory Concentration, PRD

Structure (SMILES) | MIC ([1]; pH 8.2, nutrient agar) | MIC ([2]; pH 6.8, nutrient agar) | MIC ([2]; pH 8.2, nutrient agar) | MIC (Aspergillus niger (An)) | MIC (Candida albicans (Ca)) | MIC [3] | MIC [4] | MIC (Trichoderma viride (Tv)) | MIC [5] | MIC (Fusarium oxysporum (Of)) | Marine Antifouling Rating, Bottom Panel (marine organisms; 6 weeks) | Marine Antifouling Rating, Top Panel (marine organisms; 6 weeks) | Marine Antifouling Rating, Bottom Panel (marine organisms; 10 weeks) | Marine Antifouling Rating, Top Panel (marine organisms; 10 weeks) | Marine Antifouling Rating, Bottom Panel (marine organisms; 16 weeks) | Marine Antifouling Rating, Top Panel (marine organisms; 16 weeks) | MIC (Escherichia coli (Ec); [10]) | MIC (Escherichia coli (Ec); [11]) | MIC (Proteus vulgaris (Pv); [12]) | MIC (Proteus vulgaris (Pv); [13]) | other results
O=c1[nH]c(=O)c2sc3nsnc3sc1=2 [Example I, 5H-Pyrrolo(3',4':5,6)(1,4)dithiino-(2,3-C) (1,2,5)thiadiazole-5,7 (6H) -dione] | > 500 µg/mL | 100 µg/mL (≈ 411 µM) | > 500 µg/mL | < 1 µg/mL | 5 µg/mL (≈ 20.6 µM) | < 1 µg/mL | < 1 µg/mL | 5 µg/mL (≈ 20.6 µM) | < 1 µg/mL | < 1 µg/mL | 10 | 10 | 9 | 7 | 9 | 8 | 100 µg/mL (≈ 411 µM) | > 500 µg/mL | 50 µg/mL (≈ 206 µM) | > 500 µg/mL | MIC (Bacillus subtilis (Bs); [14]): < 10 µg/mL; MIC (Bacillus subtilis (Bs); [15]): > 500 µg/mL; MIC [6, 16]: 100 µg/mL (≈ 411 µM); MIC [6, 17]: > 500 µg/mL; MIC [7, 18]: 100 µg/mL (≈ 411 µM); MIC [7, 19]: > 500 µg/mL; MIC [8, 20]: 250 µg/mL (≈ 1030 µM); MIC [8, 21]: > 500 µg/mL; MIC [9, 22]: 500 µg/mL (≈ 2060 µM); MIC [9, 23]: > 500 µg/mL
CCCn1c(=O)c2sc3nsnc3sc=2c1=O [IV, 6-n-Propyl-5H-Pyrrolo(3',4':5,6)(1,4)dithiino-(2,3-C)(1,2,5)thiadiazole-5,7(6H) -dione] | > 500 µg/mL | 500 µg/mL (≈ 1750 µM) | > 500 µg/mL | < 1 µg/mL | < 1 µg/mL | < 1 µg/mL | < 1 µg/mL | < 1 µg/mL | < 1 µg/mL | < 1 µg/mL | 9 | 9 | 7 | 7 | 7 | 7 | > 500 µg/mL | > 500 µg/mL | 250 µg/mL (≈ 876 µM) | > 500 µg/mL | MIC ([1]; pH 6.8, nutrient agar): > 500 µg/mL; MIC (Bacillus subtilis (Bs); [14]): < 10 µg/mL; MIC (Bacillus subtilis (Bs); [15]): 250 µg/mL (≈ 876 µM); MIC [6, 16]: > 500 µg/mL; MIC [6, 17]: > 500 µg/mL; MIC [7, 18]: 50 µg/mL (≈ 175 µM); MIC [7, 19]: 50 µg/mL (≈ 175 µM); MIC [8, 20]: > 500 µg/mL; MIC [8, 21]: > 500 µg/mL; MIC [9, 22]: > 500 µg/mL; MIC [9, 23]: > 500 µg/mL
